The supplement of paper PMC10307832

Assays:
Test in all cases: relative viability (nuclei count vs DMSO), 5 days (fraction); higher = more cells survive
[1] = compound: CC1=CC=C(C=C1)C(=O)CN2C3=C(CCCC3)SC2=N [Pifithrin_alpha] + Cc1nc(Nc2ncc(C(=O)Nc3c(C)cccc3Cl)s2)cc(N2CCN(CCO)CC2)n1 [Dasatinib] (partner 0.075 µM)
Outline: (§1)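 Five library-drug doses in √10 steps were combined with a fixed anchor-drug dose, or a single drug was given alone, by pin tool to lung cancer cell lines in 1536-well plates the day after seeding. Nuclei were stained and counted after 5 days. Relative viability is the nuclei count in treated wells over that in vehicle wells, taken as the median of duplicate plates.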

Axitinib + OSI-027 = compound: CNC(=O)c1ccccc1Sc1ccc2c(/C=C/c3ccccn3)n[nH]c2c1 [Axitinib] + COc1cccc2cc(-c3nc([C@H]4CC[C@H](C(=O)O)CC4)n4ncnc(N)c34)[nH]c12 [OSI-027] (partner 0.5 µM)
Outline: as §1

[2] = compound: CC1=CC=C(C=C1)C(=O)CN2C3=C(CCCC3)SC2=N [Pifithrin_alpha] + CC(=O)c1c(C)c2cnc(Nc3ccc(N4CCNCC4)cn3)nc2n(C2CCCC2)c1=O [Palbociclib] (partner 0.5 µM)
Outline: as §1

Axitinib + AZD7762 = compound: CNC(=O)c1ccccc1Sc1ccc2c(/C=C/c3ccccn3)n[nH]c2c1 [Axitinib] + NC(=O)Nc1cc(-c2cccc(F)c2)sc1C(=O)N[C@H]1CCCNC1 [AZD7762] (partner 0.2 µM)
Outline: as §1

Cell Line | relative viability ([1]; first compound 1 µM) | relative viability ([1]; first compound 3.162 µM) | relative viability ([1]; first compound 10 µM) | relative viability ([1]; first compound 31.62 µM) | relative viability ([1]; first compound 100 µM) | relative viability (Axitinib + OSI-027; first compound 0.005 µM) | relative viability (Axitinib + OSI-027; first compound 0.01581 µM) | relative viability (Axitinib + OSI-027; first compound 0.05 µM) | relative viability (Axitinib + OSI-027; first compound 0.1581 µM) | relative viability (Axitinib + OSI-027; first compound 0.5 µM) | relative viability ([2]; first compound 1 µM) | relative viability ([2]; first compound 3.162 µM) | relative viability ([2]; first compound 10 µM) | relative viability ([2]; first compound 31.62 µM) | relative viability ([2]; first compound 100 µM) | relative viability (Axitinib + AZD7762; first compound 0.005 µM) | relative viability (Axitinib + AZD7762; first compound 0.01581 µM) | relative viability (Axitinib + AZD7762; first compound 0.05 µM) | relative viability (Axitinib + AZD7762; first compound 0.1581 µM) | relative viability (Axitinib + AZD7762; first compound 0.5 µM)
NCI-H1563 | 0.406 | 0.478 | 0.369 | 0.442 | 0.44 | 0.708 | 0.705 | 0.742 | 0.705 | 0.704 | – | – | – | – | – | – | – | – | – | –
NCI-H1623 | 0.463 | 0.603 | 0.523 | 0.56 | 0.448 | 0.455 | 0.398 | 0.424 | 0.436 | 0.454 | – | – | – | – | – | – | – | – | – | –
NCI-H1648 | – | – | – | – | – | 0.258 | 0.238 | – | 0.245 | 0.249 | 0.221 | 0.313 | 0.305 | 0.337 | 0.296 | 0.725 | 0.57 | 0.666 | 0.733 | 0.682
NCI-H1650 | – | 0.242 | 0.246 | 0.25 | 0.212 | 0.706 | 0.513 | 0.721 | 0.64 | 1.01 | 0.285 | 0.321 | 0.389 | 0.307 | 0.282 | – | – | – | – | –
NCI-H1703 | – | – | – | – | – | – | – | – | – | – | – | – | – | – | – | 0.135 | 0.11 | 0.118 | 0.121 | 0.125
NCI-H2009 | 0.316 | 0.293 | 0.301 | 0.186 | 0.244 | 0.699 | 0.684 | 0.646 | 0.697 | 0.887 | 0.194 | 0.219 | 0.172 | 0.128 | 0.174 | – | – | – | – | –
NCI-H2023 | 0.432 | 0.324 | 0.348 | – | 0.275 | 0.437 | 0.446 | 0.396 | 0.337 | 0.468 | 0.388 | 0.327 | 0.365 | 0.227 | 0.184 | – | – | – | – | –
NCI-H2228 | 0.516 | 0.471 | 0.421 | 0.425 | 0.363 | 0.518 | 0.611 | 0.716 | 0.532 | 0.659 | 0.833 | 0.75 | 0.659 | 0.453 | 0.853 | – | – | – | – | –
SK-LU-1 | 0.175 | 0.193 | 0.181 | – | 0.168 | 0.396 | 0.374 | 0.37 | 0.409 | 0.415 | 0.349 | 0.412 | 0.405 | 0.308 | 0.413 | – | – | – | – | –
SK-MES-1 | 0.344 | 0.237 | 0.264 | 0.228 | 0.268 | 0.748 | 0.647 | 0.638 | 0.642 | 0.854 | 0.294 | 0.286 | 0.267 | 0.266 | 0.267 | – | – | – | – | –
SW 1573 | 0.616 | 0.513 | 0.602 | 0.36 | 0.577 | 0.592 | 0.592 | 0.68 | 0.508 | 0.724 | – | 0.395 | 0.367 | 0.241 | 0.266 | – | – | – | – | –
UMC-11 | 0.465 | 0.656 | 0.514 | 0.436 | 0.638 | 0.494 | 0.504 | 0.438 | 0.498 | 0.521 | 0.342 | 0.289 | 0.301 | 0.283 | 0.296 | – | – | – | – | –
